According to US20180099931A1 (AbbVie S.à.r.l., priority 2016, published 2018):
pEC50: −log10 of the molar value. Like-named read-outs stand apart in the source and are kept apart here.

Biological target: T1, F508delCFTR (Homo sapiens, UniProt P13569, DEL508-508)
T1 construct: expressed in transfected cells; host or cells: CFBE41o- human lung-derived epithelial cells (CFBE4lo-F508delCFTR-HRP), doxycycline-inducible
Test: Cell Surface Expression-Horse Radish Peroxidase (CSE-HRP) Assay;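 on Maximum % activity (with co-corrector): co-corrector and positive control are both the same reference corrector at 2 µM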;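 on Maximum % activity (without co-corrector): percent of the 2 µM on-plate positive control corrector response above DMSO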
Type: cell-based
Conditions: for Emax / Maximum % activity (with co-corrector): maximum at any tested concentration, normalized to on-plate positive control; for Emax: read-out: Maximum % activity (without co-corrector)

[1] = test compound without co-corrector
[2] = test compound without co-corrector, read-out: EC50 (without co-corrector)
[3] = with co-corrector (2 μM of 3-[(2R,4R)-4-({[1-(2,2-difluoro-1,3-benzodioxol-5-yl)cyclopropyl]carbonyl}amino)-7-methoxy-3,4-dihydro-2H-chromen-2-yl]benzoic acid)
[4] = with co-corrector (2 μM of 3-[(2R,4R)-4-({[1-(2,2-difluoro-1,3-benzodioxol-5-yl)cyclopropyl]carbonyl}amino)-7-methoxy-3,4-dihydro-2H-chromen-2-yl]benzoic acid), read-out: EC50 (with co-corrector)

T1 sequence (P13569 with tags, fused parts or gaps DEL508-508): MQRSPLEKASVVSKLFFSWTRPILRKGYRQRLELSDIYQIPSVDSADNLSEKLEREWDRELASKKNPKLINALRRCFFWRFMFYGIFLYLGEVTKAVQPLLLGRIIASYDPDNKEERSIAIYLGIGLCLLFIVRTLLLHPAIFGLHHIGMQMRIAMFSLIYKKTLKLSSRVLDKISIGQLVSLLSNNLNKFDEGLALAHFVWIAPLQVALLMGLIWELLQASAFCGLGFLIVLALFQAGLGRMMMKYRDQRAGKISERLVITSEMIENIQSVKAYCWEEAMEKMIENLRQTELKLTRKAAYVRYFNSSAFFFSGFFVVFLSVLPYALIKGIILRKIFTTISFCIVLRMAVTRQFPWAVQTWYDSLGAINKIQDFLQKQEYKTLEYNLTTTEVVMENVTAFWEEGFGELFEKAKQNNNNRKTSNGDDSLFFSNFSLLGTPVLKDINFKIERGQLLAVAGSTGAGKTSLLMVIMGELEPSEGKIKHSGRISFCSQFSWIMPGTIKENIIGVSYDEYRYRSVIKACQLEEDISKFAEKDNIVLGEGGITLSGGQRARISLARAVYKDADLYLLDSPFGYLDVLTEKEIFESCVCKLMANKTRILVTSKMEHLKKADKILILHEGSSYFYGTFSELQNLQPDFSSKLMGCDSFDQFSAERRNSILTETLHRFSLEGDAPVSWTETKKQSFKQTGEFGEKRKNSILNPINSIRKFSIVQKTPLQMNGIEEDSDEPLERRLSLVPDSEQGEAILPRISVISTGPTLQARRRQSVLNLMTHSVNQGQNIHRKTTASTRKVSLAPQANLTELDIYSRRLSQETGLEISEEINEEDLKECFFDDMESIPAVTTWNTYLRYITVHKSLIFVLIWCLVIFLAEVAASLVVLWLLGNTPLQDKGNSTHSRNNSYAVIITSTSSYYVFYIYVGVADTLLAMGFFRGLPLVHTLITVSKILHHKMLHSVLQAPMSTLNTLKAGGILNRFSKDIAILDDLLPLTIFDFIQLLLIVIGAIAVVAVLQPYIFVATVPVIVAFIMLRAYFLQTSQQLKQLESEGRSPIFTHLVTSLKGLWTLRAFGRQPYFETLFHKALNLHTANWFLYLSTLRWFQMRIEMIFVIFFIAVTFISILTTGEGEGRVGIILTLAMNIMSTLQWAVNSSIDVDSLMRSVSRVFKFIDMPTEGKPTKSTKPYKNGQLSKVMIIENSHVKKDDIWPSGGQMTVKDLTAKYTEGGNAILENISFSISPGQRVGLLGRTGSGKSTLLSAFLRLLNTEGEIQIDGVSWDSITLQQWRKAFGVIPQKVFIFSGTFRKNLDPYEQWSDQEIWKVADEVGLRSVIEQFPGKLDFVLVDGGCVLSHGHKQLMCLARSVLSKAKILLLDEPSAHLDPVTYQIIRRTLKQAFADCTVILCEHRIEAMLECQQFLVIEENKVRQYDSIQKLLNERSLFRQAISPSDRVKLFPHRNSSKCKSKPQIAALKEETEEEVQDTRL

Compound | Emax [1] | pEC50 [2] | Maximum % activity (with co-corrector) [3] | pEC50 [4] | Maximum % activity (with co-corrector) (with co-corrector (2 μM))
COc1ncc(Br)cc1CN[C@H]1[C@H](C(C)(C)C)[C@@H](C(=O)O)N(C(=O)[C@@H]2CCCO2)[C@H]1c1ccccc1C(C)C [II-594] | > 200% | 5.00 to 6.00 | +++ (≥350) | > 6.00 | 
COc1ccc(C(F)(F)F)cc1CN[C@H]1[C@H](C(C)(C)C)[C@@H](C(=O)O)N(C(=O)[C@@H]2CCCO2)[C@H]1c1ccccc1C(C)C [II-595] | > 200% | > 6.00 | +++ (≥350) | > 6.00 | 
COc1ncc(C(F)(F)F)cc1CN[C@H]1[C@H](C(C)(C)C)[C@@H](C(=O)O)N(C(=O)[C@@H]2CCCO2)[C@H]1c1cccnc1N(C)C [II-596] | < 100% | 5.00 to 6.00 | ++ (≥150 and <350) | 5.00 to 6.00 | 
COc1ncc(C2CCC2)cc1CN[C@H]1[C@H](C(C)(C)C)[C@@H](C(=O)O)N(C(=O)[C@@H]2CCCO2)[C@H]1c1ccccc1C(F)F [II-597] | 100 to 200% | 5.00 to 6.00 | +++ (≥350) | 5.00 to 6.00 | 
COc1nc2ccccc2cc1CN[C@H]1[C@H](C(C)(C)C)[C@@H](C(=O)O)N(C(=O)C2CCOCC2)[C@H]1c1ccccc1C(C)C [II-598] | > 200% | 5.00 to 6.00 | +++ (≥350) | > 6.00 | 
COc1nc2ccccc2cc1CN[C@H]1[C@H](C(C)(C)C)[C@@H](C(=O)O)N(C(=O)[C@@H]2CCCO2)[C@H]1c1cccnc1N(C)C [II-599] | < 100% | 5.00 to 6.00 | ++ (≥150 and <350) | 5.00 to 6.00 | 
COc1nc2ccccc2cc1CN[C@H]1[C@H](C(C)(C)C)[C@@H](C(=O)O)N(C(=O)C2CCOCC2)[C@H]1c1cccnc1N(C)C [II-600] | < 100% | 5.00 to 6.00 | ++ (≥150 and <350) | 5.00 to 6.00 | 
COc1ccc(C(F)(F)F)cc1CN[C@@H]1[C@@H](C(C)(C)C)[C@H](C(=O)O)N(C(=O)[C@H](OC)c2ccccc2)[C@@H]1c1ccccc1 [III-68] | < 100% | < 5.00 | ++ (≥150 and <350) | 5.00 to 6.00 | 
CO[C@@H](C(=O)N1[C@H](c2ccccc2)[C@H](Nc2cc(C(F)(F)F)cc(C)n2)[C@@H](C(C)(C)C)[C@@H]1C(=O)O)c1ccccc1 [III-75] | < 100% | 5.00 to 6.00 | ++ (≥150 and <350) | 5.00 to 6.00 | 
CO[C@@H](C(=O)N1[C@H](C(=O)O)[C@@H](C(C)(C)C)[C@H](Nc2cc(C(F)(F)F)cc(C)n2)[C@@H]1c1ccccc1)c1ccccc1 [III-78] | < 100% | < 5.00 | ++ (≥150 and <350) | 5.00 to 6.00 | 
COc1cc(C(F)(F)F)ccc1CN[C@@H]1[C@@H](C(C)(C)C)[C@H](C(=O)O)N(C(=O)C2CCCCC2)[C@@H]1c1ccccc1OC [III-95] | < 100% | < 5.00 |  | 5.00 to 6.00 | ++ (≥150 and <350)
COc1ccc(C(F)(F)F)cc1CN[C@@H]1[C@@H](C(C)(C)C)[C@H](C(=O)O)N(C(=O)[C@H](OC)c2ccccc2)[C@@H]1c1ccccc1N(C)C [III-98] | < 100% | < 5.00 |  | 5.00 to 6.00 | ++ (≥150 and <350)
COc1ccc(Cl)cc1CN[C@@H]1[C@@H](C(C)(C)C)[C@H](C(=O)O)N(C(=O)[C@H](OC)c2ccccc2)[C@@H]1c1ccccc1N(C)C [III-99] | < 100% | < 5.00 |  | 5.00 to 6.00 | ++ (≥150 and <350)
COc1ccc(C(F)(F)F)cc1CN[C@H]1[C@H](C(C)(C)C)[C@@H](C(=O)O)N(C(=O)[C@](OC)(c2ccccc2)C(F)(F)F)[C@H]1c1ccccc1 [III-100] | < 100% | < 5.00 |  | 5.00 to 6.00 | ++ (≥150 and <350)
COc1cc(C(F)(F)F)ccc1CN[C@@H]1[C@@H](C(C)(C)C)[C@H](C(=O)O)N(C(=O)[C@@H](OC)c2ccccc2)[C@@H]1c1ccccc1 [III-101] | < 100% | < 5.00 |  | 5.00 to 6.00 | ++ (≥150 and <350)
COc1ccc(C(F)(F)F)cc1CN[C@@H]1[C@@H](C(C)(C)C)[C@H](C(=O)O)N(C(=O)[C@](OC)(c2ccccc2)C(F)(F)F)[C@@H]1c1ccccc1 [III-102] | < 100% | < 5.00 |  | 5.00 to 6.00 | ++ (≥150 and <350)
CO[C@H](C(=O)N1[C@H](C(=O)O)[C@@H](C(C)(C)C)[C@H](Nc2cc(C(F)(F)F)cc(C)n2)[C@@H]1c1ccccc1)c1ccccc1 [III-103] | < 100% | < 5.00 |  | 5.00 to 6.00 | + (<150)
COc1cc(C(F)(F)F)ccc1CN[C@@H]1[C@@H](C(C)(C)C)[C@H](C(=O)O)N(C(=O)[C@H]2CCCCO2)[C@@H]1c1ccccc1 [III-117] | < 100% | < 5.00 |  | 5.00 to 6.00 | ++ (≥150 and <350)
COc1ccc(Br)cc1CN[C@H]1[C@H](C(C)(C)C)[C@@H](C(=O)O)N(C(=O)C2CCCCC2)[C@H]1c1ccccc1 [III-118] | > 200% | > 6.00 |  | > 6.00 | +++ (≥350)
COc1cc2c(cc1CN[C@H]1[C@H](C(C)(C)C)[C@@H](C(=O)O)N(C(=O)C3CCCCC3)[C@H]1c1ccccc1)C(C)(C)CCC2(C)C [III-119] | 100 to 200% | > 6.00 |  | > 6.00 | +++ (≥350)
CC(C)(C)[C@H]1[C@H](NCc2ccc3c(c2)CCCO3)[C@H](c2ccccc2)N(C(=O)C2CCCCC2)[C@@H]1C(=O)O [III-120] | < 100% | < 5.00 |  | 5.00 to 6.00 | ++ (≥150 and <350)
CC(C)(C)[C@H]1[C@H](NCc2ccc(C#N)cc2F)[C@H](c2ccccc2)N(C(=O)C2CCCCC2)[C@@H]1C(=O)O [III-121] | < 100% | < 5.00 |  | 5.00 to 6.00 | ++ (≥150 and <350)
CC(C)(C)[C@H]1[C@H](NCc2ccc3c(c2)CCO3)[C@H](c2ccccc2)N(C(=O)C2CCCCC2)[C@@H]1C(=O)O [III-122] | < 100% | < 5.00 |  | 5.00 to 6.00 | ++ (≥150 and <350)
CC(C)(C)[C@H]1[C@H](NCc2ccc(F)cc2C(F)(F)F)[C@H](c2ccccc2)N(C(=O)C2CCCCC2)[C@@H]1C(=O)O [III-123] | < 100% | > 6.00 |  | > 6.00 | ++ (≥150 and <350)
CC(C)Oc1ccc(Cl)cc1CN[C@H]1[C@H](C(C)(C)C)[C@@H](C(=O)O)N(C(=O)C2CCCCC2)[C@H]1c1ccccc1 [III-124] | < 100% | 5.00 to 6.00 |  | > 6.00 | +++ (≥350)
CC(C)(C)[C@H]1[C@H](NCc2ccc(F)c(C#N)c2)[C@H](c2ccccc2)N(C(=O)C2CCCCC2)[C@@H]1C(=O)O [III-125] | < 100% | < 5.00 |  | 5.00 to 6.00 | ++ (≥150 and <350)
COc1ccc(CN[C@H]2[C@H](C(C)(C)C)[C@@H](C(=O)O)N(C(=O)C3CCCCC3)[C@H]2c2ccccc2)cc1Cl [III-126] | < 100% | 5.00 to 6.00 |  | 5.00 to 6.00 | ++ (≥150 and <350)
CC(C)(C)[C@H]1[C@H](NCc2ccc(F)cc2C#N)[C@H](c2ccccc2)N(C(=O)C2CCCCC2)[C@@H]1C(=O)O [III-127] | < 100% | < 5.00 |  | < 5.00 | + (<150)
CC(C)(C)[C@H]1[C@H](NCc2ccc(OC(F)(F)F)c(F)c2)[C@H](c2ccccc2)N(C(=O)C2CCCCC2)[C@@H]1C(=O)O [III-128] | < 100% | < 5.00 |  | 5.00 to 6.00 | ++ (≥150 and <350)
